Test [1] addresses T1, Type-1 angiotensin II receptor (Oryctolagus cuniculus) (UniProt P34976).
T1 sequence (whole entry): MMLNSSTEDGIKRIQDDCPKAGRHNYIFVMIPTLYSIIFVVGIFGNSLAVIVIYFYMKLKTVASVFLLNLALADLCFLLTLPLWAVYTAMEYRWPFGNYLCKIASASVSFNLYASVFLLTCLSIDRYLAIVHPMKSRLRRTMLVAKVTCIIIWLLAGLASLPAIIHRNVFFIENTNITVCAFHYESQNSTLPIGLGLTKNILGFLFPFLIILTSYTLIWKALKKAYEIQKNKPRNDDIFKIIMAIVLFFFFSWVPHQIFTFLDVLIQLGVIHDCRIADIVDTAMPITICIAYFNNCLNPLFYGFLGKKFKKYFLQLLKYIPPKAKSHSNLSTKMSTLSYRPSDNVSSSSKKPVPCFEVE
The test can be described thus: In vitro antagonism of Angiotensin II receptor, type 1 in isolated rabbit thoracic aorta. Format: functional, tissue-based.

The species named for the next test is Oryctolagus cuniculus. Nature of the test: pA2 value determined by their ability to block AngII induced contractile responses in rabbit aorta strips. The settings on record: read-out: pA2 (converted). In kind it is functional.

Consider `CCCCCC[C@@H](C(=O)N1C[C@@H](Oc2ccc(CC(=O)O)cc2)C[C@H]1C(=O)O)n1cnc(NC(=O)c2ccccc2S(=O)(=O)O)c1`, for which the Kb in test [1] is 4.5 nM.
On to `CCCCCCC(C(=O)O)n1cnc(NC(=O)c2cccc(O)c2C(=O)O)c1` (stereo unspecified), for which, in the test listed under Oryctolagus cuniculus, the Kb is 100 nM.
As to `CCCCCC[C@@H](C(=O)N1C[C@@H](Oc2ccc(CC(=O)O)cc2)C[C@@H]1C(=O)O)n1cnc(NC(=O)c2ccccc2S(=O)(=O)O)c1`, the Kb in test [1] came out at 761 nM.
On the same count and under the same terms, the same measure for `CCCCCC[C@H](C(=O)N1C[C@@H](Oc2ccc(CC(=O)O)cc2)C[C@@H]1C(=O)O)n1cnc(NC(=O)c2ccccc2S(=O)(=O)O)c1`: 156 nM; for `CCCCCC[C@H](C(=O)N1C[C@H](Oc2ccc(CC(=O)O)cc2)C[C@@H]1C(=O)O)n1cnc(NC(=O)c2ccccc2S(=O)(=O)O)c1`: 191 nM; for `CCCCCC[C@H](C(=O)N1C[C@H](Oc2ccc(CC(=O)O)cc2)C[C@H]1C(=O)O)n1cnc(NC(=O)c2ccccc2S(=O)(=O)O)c1`: 503 nM.
Compound `CCCCCC[C@@H](C(=O)N1C[C@H](Oc2ccc(CC(=O)O)cc2)C[C@@H]1C(=O)O)n1cnc(NC(=O)c2ccccc2S(=O)(=O)O)c1` displayed a Kb in test [1] of 489 nM.
With `CCCCCCC(C(=O)O)n1cnc(NC(=O)c2ccccc2C2N=NN=N2)c1` (stereo unspecified), in the test filed under Oryctolagus cuniculus, the Kb is 100 nM.
Consider `CCCCCC[C@@H](C(=O)N1C[C@H](Oc2ccc(CC(=O)O)cc2)C[C@H]1C(=O)O)n1cnc(NC(=O)c2ccccc2S(=O)(=O)O)c1`, for which the Kb in test [1] came to 555 nM.
`CCCCCC[C@H](C(=O)N1C[C@@H](Oc2ccc(CC(=O)O)cc2)C[C@H]1C(=O)O)n1cnc(NC(=O)c2ccccc2S(=O)(=O)O)c1` displayed a Kb in test [1] of 0.12 nM.
For `CCCCCCC(C(=O)O)n1cnc(NC(=O)c2ccccc2C(=O)O)c1` (stereo unspecified), the Kb in the test filed under Oryctolagus cuniculus is 100 nM.

The record behind these values is ChEMBL document CHEMBL1127875 (Bioorg Med Chem Lett, 1994).
